The record followed here is paper PMC3382171 (PLoS ONE, 2012).

What all share (assay): biochemical
What all share (parameters): Invitrogen SelectScreen kinase panel, percent inhibition at 1 uM, ATP at Km
Common to all, as to details: read-out: Invitrogen KSS %Inh at 1 µM

Test [1] has as its target AXL (Homo sapiens, UniProt P30530). A digest of the protocol:
(§1)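 Commercial kinase panel screens run with ATP at the Km for each kinase. Compounds tested at 1 µM final concentration; values are % inhibition of phosphorylation relative to control.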

Test [2] concerns the target BLK (Homo sapiens, UniProt P51451). A digest of the protocol: as §1
The target in test [3] is BMX (Homo sapiens, UniProt P51813). A digest of the protocol: as §1
For test [4], the target named is T1, CDK5/p35 (Homo sapiens, UniProt Q00535).
T1 construct: p35
The gist of the method:
as §1

Test [5] deals with EGFR (ErbB1) (Homo sapiens, UniProt P00533). The gist of the method: as §1
Test [6] concerns the target EPHA4 (Homo sapiens, UniProt P54764). A digest of the protocol: as §1
The target in test [7] is EPHB2 (Homo sapiens, UniProt P29323). The gist of the method:
as §1

The target in test [8] is EPHB4 (Homo sapiens, UniProt P54760). A digest of the protocol: as §1
The target in test [9] is FGFR4 (Homo sapiens, UniProt P22455). A digest of the protocol:
as §1

Test [10] deals with FRAP1 (mTOR) (Homo sapiens, UniProt P42345). The gist of the method: as §1
Test [11] deals with INSR (Homo sapiens, UniProt P06213). A digest of the protocol: as §1
The target in test [12] is KIT (Homo sapiens, UniProt P10721). A digest of the protocol:
as §1

Test [13] has as its target T2, LYN A (Homo sapiens, UniProt P07948).
T2 construct: isoform A
The gist of the method: as §1

Test [14] concerns the target MAP2K6 (MKK6) (Homo sapiens, UniProt P52564). A digest of the protocol: as §1
Test [15] addresses MAP4K2 (GCK) (Homo sapiens, UniProt Q12851). A digest of the protocol:
as §1

Test [16] concerns the target MAPK10 (JNK3) (Homo sapiens, UniProt P53779). A digest of the protocol:
as §1

Test [17] deals with MARK1 (Homo sapiens, UniProt Q9P0L2). A digest of the protocol: as §1
Test [18] addresses PAK2 (PAK65) (Homo sapiens, UniProt Q13177). The gist of the method:
as §1

The target in test [19] is PIK3CA/PIK3R1 (p110 alpha/p85 alpha) (Homo sapiens, UniProt P42336). A digest of the protocol:
as §1

Test [20] concerns the target PIM2 (Homo sapiens, UniProt Q9P1W9). The gist of the method:
as §1

Test [21] concerns the target ROS1 (Homo sapiens, UniProt P08922). The gist of the method:
as §1

Test [22] addresses RPS6KA1 (RSK1) (Homo sapiens, UniProt Q15418). A digest of the protocol: as §1
Test [23] addresses RPS6KA5 (MSK1) (Homo sapiens, UniProt O75582). A digest of the protocol:
as §1

T1 sequence (Q00535 whole entry): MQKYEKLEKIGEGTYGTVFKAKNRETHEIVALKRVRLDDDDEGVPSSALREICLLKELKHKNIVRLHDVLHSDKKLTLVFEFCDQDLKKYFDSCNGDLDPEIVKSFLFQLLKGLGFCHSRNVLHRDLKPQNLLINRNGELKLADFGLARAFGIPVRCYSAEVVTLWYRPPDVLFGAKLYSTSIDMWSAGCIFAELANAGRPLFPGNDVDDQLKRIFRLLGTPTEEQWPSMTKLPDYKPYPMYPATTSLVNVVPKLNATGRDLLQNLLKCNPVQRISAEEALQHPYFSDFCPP
T1 sequence (Q15078 whole entry partner): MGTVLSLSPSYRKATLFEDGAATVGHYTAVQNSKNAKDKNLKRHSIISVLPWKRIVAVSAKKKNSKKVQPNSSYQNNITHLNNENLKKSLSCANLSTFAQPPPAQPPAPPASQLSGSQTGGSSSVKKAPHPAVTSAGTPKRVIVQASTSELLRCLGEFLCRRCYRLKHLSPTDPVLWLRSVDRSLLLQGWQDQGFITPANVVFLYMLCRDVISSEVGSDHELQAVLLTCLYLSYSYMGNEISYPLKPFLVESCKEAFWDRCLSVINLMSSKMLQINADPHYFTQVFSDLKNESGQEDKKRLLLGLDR
EGFR (ErbB1), sequence (P00533 whole entry): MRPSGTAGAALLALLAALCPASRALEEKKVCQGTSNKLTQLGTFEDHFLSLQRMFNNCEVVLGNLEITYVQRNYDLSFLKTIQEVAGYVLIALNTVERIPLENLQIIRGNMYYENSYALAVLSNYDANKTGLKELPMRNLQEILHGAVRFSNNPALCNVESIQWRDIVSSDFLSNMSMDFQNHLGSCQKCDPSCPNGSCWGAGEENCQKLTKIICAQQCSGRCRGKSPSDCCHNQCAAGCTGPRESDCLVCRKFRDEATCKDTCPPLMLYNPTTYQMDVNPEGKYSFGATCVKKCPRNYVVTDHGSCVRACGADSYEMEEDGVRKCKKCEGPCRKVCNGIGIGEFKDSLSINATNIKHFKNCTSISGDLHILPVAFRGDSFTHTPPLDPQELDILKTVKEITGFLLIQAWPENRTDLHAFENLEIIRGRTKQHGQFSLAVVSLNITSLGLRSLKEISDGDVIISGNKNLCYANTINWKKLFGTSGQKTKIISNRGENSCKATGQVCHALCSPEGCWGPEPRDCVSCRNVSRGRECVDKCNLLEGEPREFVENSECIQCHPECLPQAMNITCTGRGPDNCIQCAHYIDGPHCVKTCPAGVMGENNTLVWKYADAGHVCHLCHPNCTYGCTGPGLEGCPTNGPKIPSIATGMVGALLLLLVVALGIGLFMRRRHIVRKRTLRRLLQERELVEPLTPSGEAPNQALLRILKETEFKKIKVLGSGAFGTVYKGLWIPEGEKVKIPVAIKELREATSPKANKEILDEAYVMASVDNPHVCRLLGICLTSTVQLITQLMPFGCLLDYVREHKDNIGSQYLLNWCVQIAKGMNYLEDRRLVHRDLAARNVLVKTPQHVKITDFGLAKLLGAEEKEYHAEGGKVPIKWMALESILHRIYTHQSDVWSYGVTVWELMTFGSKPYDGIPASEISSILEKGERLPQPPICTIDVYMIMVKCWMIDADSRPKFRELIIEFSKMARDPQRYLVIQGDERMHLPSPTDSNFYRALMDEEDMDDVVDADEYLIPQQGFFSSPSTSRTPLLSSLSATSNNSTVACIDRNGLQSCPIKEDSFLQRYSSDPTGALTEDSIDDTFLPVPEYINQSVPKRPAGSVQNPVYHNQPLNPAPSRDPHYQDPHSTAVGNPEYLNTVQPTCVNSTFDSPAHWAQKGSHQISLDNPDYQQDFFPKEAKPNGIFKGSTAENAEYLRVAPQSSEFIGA
EPHA4, sequence (P54764 whole entry): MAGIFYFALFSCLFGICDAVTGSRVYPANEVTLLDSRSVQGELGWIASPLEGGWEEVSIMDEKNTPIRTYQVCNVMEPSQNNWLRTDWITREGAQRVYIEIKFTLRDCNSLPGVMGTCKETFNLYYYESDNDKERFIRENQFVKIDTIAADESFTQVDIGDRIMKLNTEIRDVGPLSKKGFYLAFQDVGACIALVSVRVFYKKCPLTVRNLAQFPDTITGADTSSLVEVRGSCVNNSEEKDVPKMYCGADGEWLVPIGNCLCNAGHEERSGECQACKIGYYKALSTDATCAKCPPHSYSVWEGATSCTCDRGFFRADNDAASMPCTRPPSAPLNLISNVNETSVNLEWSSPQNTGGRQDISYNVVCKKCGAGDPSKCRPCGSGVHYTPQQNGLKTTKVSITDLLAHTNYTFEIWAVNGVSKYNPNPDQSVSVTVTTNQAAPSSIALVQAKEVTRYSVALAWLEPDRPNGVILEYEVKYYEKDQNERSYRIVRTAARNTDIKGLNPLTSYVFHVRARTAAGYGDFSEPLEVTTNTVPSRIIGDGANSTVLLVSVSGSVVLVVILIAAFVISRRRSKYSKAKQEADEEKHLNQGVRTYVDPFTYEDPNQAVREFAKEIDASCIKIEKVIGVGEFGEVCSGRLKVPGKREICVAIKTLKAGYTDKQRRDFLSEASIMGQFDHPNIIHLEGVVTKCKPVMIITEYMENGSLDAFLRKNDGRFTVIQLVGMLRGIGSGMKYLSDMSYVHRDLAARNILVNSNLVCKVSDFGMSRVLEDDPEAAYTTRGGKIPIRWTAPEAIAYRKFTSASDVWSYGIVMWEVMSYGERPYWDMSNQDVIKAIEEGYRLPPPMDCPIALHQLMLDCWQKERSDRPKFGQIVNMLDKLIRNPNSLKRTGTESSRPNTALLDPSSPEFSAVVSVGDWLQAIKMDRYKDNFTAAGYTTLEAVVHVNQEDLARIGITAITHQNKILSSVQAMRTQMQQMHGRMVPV
AXL, sequence (P30530 whole entry): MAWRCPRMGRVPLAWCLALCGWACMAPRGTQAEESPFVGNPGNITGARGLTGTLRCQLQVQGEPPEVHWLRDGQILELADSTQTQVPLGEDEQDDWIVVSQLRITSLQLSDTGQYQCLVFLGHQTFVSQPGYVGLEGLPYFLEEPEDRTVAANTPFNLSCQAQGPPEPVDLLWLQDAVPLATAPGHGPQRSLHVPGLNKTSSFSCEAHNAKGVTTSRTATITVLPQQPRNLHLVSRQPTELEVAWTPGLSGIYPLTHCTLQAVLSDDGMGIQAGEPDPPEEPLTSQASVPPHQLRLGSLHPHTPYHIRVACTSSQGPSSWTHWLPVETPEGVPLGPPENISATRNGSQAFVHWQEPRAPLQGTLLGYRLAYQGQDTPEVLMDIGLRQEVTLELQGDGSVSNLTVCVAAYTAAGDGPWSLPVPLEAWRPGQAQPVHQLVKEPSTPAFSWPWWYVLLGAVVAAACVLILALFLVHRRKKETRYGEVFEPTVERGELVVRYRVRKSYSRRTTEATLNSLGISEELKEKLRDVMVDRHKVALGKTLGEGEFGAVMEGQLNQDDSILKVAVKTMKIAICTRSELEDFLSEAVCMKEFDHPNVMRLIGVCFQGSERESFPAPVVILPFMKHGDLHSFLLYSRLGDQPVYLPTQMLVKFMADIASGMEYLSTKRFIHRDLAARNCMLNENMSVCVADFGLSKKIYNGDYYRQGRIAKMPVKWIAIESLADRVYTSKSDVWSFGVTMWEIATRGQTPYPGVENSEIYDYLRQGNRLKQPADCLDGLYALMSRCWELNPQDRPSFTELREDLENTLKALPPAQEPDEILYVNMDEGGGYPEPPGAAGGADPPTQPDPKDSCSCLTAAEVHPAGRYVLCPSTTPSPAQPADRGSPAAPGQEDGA
MAP2K6 (MKK6), sequence (P52564 whole entry): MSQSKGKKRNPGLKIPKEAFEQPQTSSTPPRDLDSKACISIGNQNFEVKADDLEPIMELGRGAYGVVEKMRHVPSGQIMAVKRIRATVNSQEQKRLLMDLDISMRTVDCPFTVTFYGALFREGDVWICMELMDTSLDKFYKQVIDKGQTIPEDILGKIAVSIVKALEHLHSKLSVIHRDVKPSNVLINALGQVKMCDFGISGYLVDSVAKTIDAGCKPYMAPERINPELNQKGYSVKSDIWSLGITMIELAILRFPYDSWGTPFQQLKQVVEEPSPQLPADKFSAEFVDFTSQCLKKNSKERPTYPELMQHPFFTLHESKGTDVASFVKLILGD
EPHB2, sequence (P29323 whole entry): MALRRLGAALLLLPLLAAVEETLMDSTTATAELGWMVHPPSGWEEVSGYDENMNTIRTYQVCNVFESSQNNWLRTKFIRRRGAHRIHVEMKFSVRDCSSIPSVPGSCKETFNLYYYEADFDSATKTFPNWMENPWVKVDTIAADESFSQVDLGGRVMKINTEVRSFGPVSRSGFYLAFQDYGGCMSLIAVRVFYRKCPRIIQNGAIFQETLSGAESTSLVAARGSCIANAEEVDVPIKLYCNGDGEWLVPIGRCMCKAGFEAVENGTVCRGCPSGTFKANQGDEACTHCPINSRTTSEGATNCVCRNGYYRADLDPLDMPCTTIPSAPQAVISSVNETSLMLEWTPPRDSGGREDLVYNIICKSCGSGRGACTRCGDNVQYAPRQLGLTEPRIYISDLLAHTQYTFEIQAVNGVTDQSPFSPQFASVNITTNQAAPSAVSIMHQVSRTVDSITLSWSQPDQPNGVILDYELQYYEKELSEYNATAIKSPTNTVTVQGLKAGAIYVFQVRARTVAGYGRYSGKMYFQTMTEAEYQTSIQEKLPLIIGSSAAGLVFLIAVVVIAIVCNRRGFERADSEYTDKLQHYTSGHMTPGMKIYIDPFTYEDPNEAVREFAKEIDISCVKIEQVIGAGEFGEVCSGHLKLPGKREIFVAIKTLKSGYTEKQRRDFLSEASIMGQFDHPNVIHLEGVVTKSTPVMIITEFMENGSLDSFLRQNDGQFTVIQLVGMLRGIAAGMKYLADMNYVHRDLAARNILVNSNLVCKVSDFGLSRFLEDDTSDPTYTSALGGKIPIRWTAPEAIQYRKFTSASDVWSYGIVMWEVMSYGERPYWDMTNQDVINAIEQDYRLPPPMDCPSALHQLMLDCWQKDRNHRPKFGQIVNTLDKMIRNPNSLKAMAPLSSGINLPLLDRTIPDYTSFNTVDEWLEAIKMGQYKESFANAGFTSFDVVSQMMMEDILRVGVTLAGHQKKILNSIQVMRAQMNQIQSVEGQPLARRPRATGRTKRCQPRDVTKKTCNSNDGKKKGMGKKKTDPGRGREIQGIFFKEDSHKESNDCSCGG

Turning to `N#CCCNc1nccc(-c2cn(CC(F)F)nc2-c2cnc3[nH]ccc3c2)n1` [RAFi, PF-04880594], the inhibition at 1 µM was -1% in [1]; 7% in [2]; -3% in test [3]; 9% in test [4]; 5% in test [5]; 1% in test [6]. The inhibition at 1 µM in test [7] is 3%; in test [8], 2%; in [9], 5%; in test [10], -7%; in test [11], -4%; in test [12], 36%. For the same compound, the inhibition at 1 µM in [13] was 2%; in test [14] it was 12%; in test [15] it was -12%; in test [16] it was 81%; in test [17], 2%; in test [18], 3%. Also, the inhibition at 1 µM in test [19] worked out at 35%; in test [20] it was 3%; in test [21], 11%; in test [22] it was 6%; in test [23], 3%.
